This is an account of results in US20100150845A1, “SYSTEM AND METHOD FOR THE DELIVERY OF A SANITIZING FOAM” (GREEN SOURCE AUTOMATED, LLC, priority 2008, published 2010).

Read-outs that look alike come from different tables or passages of the source.

Data set [1] is described as follows: Gas dissolved in teat dip solution under pressure. The note with it: standard room temperature and 100 psi pressure. The class given is physicochemical.
Description: The pressure vessel was constructed from a 0.1 m outside diameter piece of stainless steel tubing. The ends of the tube were capped with tri clover fittings to allow ease of access. The tri-clover caps were modified by adding two entry points on the proximal cap. One entry point on the proximal cap is to allow propellant/diffused gas to be introduced and the other is used to bleed off atmospheric air, when the tank was initially filled with propellant/diffused gas and to relieve pressure before refilling. On the distal cap of the tank two openings were added, each with tubing securely attached and each tube going to a manual shut off valve with a spray nozzle attached. A propellant/diffusion gas source with regulator was attached to the pressure vessel through the entry point on the proximal cap. The pressure vessel is filled about half full with teat dip solution, closed and the tank is pressurized with approximately 100 pounds per square inch (psi) of propellant/diffusion gas, except for the 50% carbon dioxide and 50% nitrous oxide propellant/diffusion gas which is set at 150 psi. The distance and angle from nozzle to teat is 0.15 m and 45 degrees from the horizontal (which were set to mimic a robotic tool used for some embodiments). […]
The conditions of data set [2]: cited from earlier work.

Take `O=C=O` [CO2, Carbon dioxide]: in data set [1], the “volumes of gas dissolved per volume of dip solution” value is reported as “approximately 4.5 volumes”. In addition, the results for the vapor pressure entry in data set [2] (at 185° K.) and in data set [2] (at 290° K.) were “approximately 0.45 bar” and “approximately 50 bar”, respectively.

As to `[N-]=[N+]=O` [Example N2O, nitrous oxide], the “volumes of gas dissolved in one volume of the dip solution” value in data set [1] is given as “approximately four”. The vapor pressure entry is given as “approximately 1 bar” in data set [2] (at 185° K.) and “approximately 50 bar” in data set [2] (at 290° K.).
